Marks after values point to notes of the source that are not given here.

Series [1] is described as follows: Safety and tolerability (adverse events, laboratory findings), phase 1 DDI study. How it is done:
Participants were also excluded if they used any prescription medication (except female contraception) and any over-the-counter medications/supplements within 14 days and 7 days prior to the first admission, respectively.
In both cohorts, FMGX was administered as a 3-hour IV infusion twice a day (BID, dosing interval: […]). All participants received FMGX on 2 days, once before a washout period (minimum 14 days) and once after the washout. […] The study consisted of a screening phase [days −28 to −1 (admission)], assessment phase (cohort 1: days −1 to 31; cohort 2: days −1 to 34), and follow-up phase (cohort 1: day 38 ± 1; cohort 2: day 41 ± 1). Participants in both cohorts had in-clinic stays for two periods: cohort 1 [days −1 to 4 (morning) and days 17 to 31 (morning)], cohort 2 [days −1 to 4 (morning) and day 23 to 34 (morning)], and at home dosing for two periods: cohort 1 (days 15 to 17) and cohort 2 (days 15 to 23).
Safety was assessed by evaluating the frequency of adverse events (AEs) recorded from the first admission (day −1) until completion of the follow-up visit (day 38 ± 1 in cohort 1; day 41 ± 1 in cohort 2). All AEs were classified per the Medical Dictionary for Regulatory Activities (MedDRA v22.1). The investigator ascertained relatedness to study the drug administration.
An analysis of variance (ANOVA) model was used to analyze the natural log-transformed primary PK parameters while the secondary PK parameters were not subjected to inferential statistical analysis. For each cohort, 18 participants were included to ensure at least 16 completed all assessments, as this was considered adequate to evaluate PK, safety, and tolerability. Thus, a sample size of 36 was considered sufficient to assess primary and secondary objectives. […] The PK analysis set included all participants who received at least one dose of FMGX and had adequate plasma concentration data available for PK analysis.

The next series has as its system human CYPs. The conditions noted are these: concentrations up to 30 µM in vitro; ref data on file; cited from earlier work.
Series [2] concerns Candida, Coccidioides, Cryptococcus, and Aspergillus spp. The conditions noted are these: cited from earlier work.
In the next series the test system is CYP450 enzymes. The conditions noted are these: cited from earlier work.
A short description of series [3]: Plasma pharmacokinetics of MGX and FMGX (noncompartmental analysis), phase 1 fixed-sequence DDI study with itraconazole or rifampin. In kind it is in vivo, human. The conditions noted are these: for FMGX AUC(0-23) / FMGX AUC(0-t) / FMGX Cmax / FMGX Tmax / FMGX AUC(inf) / FMGX CL / FMGX Vz / FMGX t½ / FMGX λz: D1; for FMGX AUC(0-23) / FMGX AUC(0-t) / FMGX Cmax / FMGX AUC(inf) / FMGX CL / FMGX Vz / FMGX t½ / FMGX λz: geometric mean (geometric %CV); for FMGX Tmax: median (range). As for the experimental part: In cohort 1, MGX plasma samples were collected at specified time points daily on days 1–4, once every 2 days on days 6–14, daily for 3 days from days 18 to 20, once every 2 days from days 21 to 29, and then on day 31, while itraconazole samples were collected at specified time points on days 19, 25, and 31. […] PK parameters were calculated using noncompartmental analysis from the plasma concentration-time data for MGX and FMGX. Primary PK parameters were maximum observed plasma concentration (Cmax), AUC from time 0 to infinity (AUC0-inf), and AUC up to time t (AUC0-t, where t was the last time point with concentrations above the lower limit of quantitation). […] Secondary PK parameters were time to attain Cmax (Tmax), AUC from time 0 to 23 hours (AUC0-23), terminal elimination half-life after the last dosing on the day (t1/2), clearance (CL), volume of distribution at terminal phase (Vz), and terminal phase rate constant after the last dosing on the day (λz).

Where [4] appears, read: FMGX only 500 mg BID IV, Cohort 1, n = 16.
[5] abbreviates: FMGX only 500 mg BID IV, Cohort 1, n=12.
The mark [6] stands for this setting: FMGX only 1000 mg BID IV, Cohort 2, n = 17.
Setting [7] is: one participant, cohort 1, considered related to itraconazole, days 31 through 70.

For the compound `Nc1c(-c2cc(Cc3ccc(COc4ccccn4)cc3)no2)ccc[n+]1COP(=O)([O-])O` [FMGX, Fosmanogepix], in series [1] (Cohort 1, FMGX 500 mg), the “FMGX-related AEs / all events” value was 4/43. Also, the “FMGX-related AEs / all events” value in series [1] (Cohort 2, FMGX 1,000 mg) is on record as 33/145. Moreover, the Safety and tolerability result in series [1] (FMGX 500 and 1,000 mg, alone or with itraconazole 200 mg or rifampin 600 mg) was “safe and well tolerated”. Also, in series [1] (both cohorts, N = 36), the “Deaths, serious AEs (SAEs), FMGX-related withdrawals” value is “No deaths, serious AEs (SAEs), or FMGX-related withdrawals” and the “Participants reporting FMGX-related AEs, n (%)” value is listed as 12 (33.3%). Moreover, in series [1] (of all 188 events, both cohorts), the “AEs considered related to FMGX, number of events” value stood at 37. Moreover, in the series on human CYPs, the “Reversible or time-dependent inhibition of human CYPs” value is “No reversible or time-dependent inhibition”. For the same compound, the “Efficacy in mouse models of invasive pulmonary and disseminated fungal infections” value in series [2] was “demonstrated efficacy”. Also, the “Substrate for CYP450 enzymes” value in the series with CYP450 enzymes was “not a substrate”. In series [3] (setting [4]), the “FMGX AUC(0-23)” value is listed as 9945 (16.5) hr×ng/mL, the “FMGX AUC(0-t)” value is recorded as 9945 (16.5) hr×ng/mL, the “FMGX Cmax” value is on record as 1520 (18.6) ng/mL and the “FMGX Tmax” value was 10.5 (0.50 – 12.0) hr. Further, in series [3] (setting [5]), the “FMGX AUC(inf)” value is recorded as 10191 (18.3)** hr×ng/mL, the “FMGX CL” value was 98128 (18.3)** mL/hr, the “FMGX Vz” value is 53.6 (22.5)** L and the “FMGX t½” value is given as 0.38 (14.4)** hr. Also, the “FMGX λz” value in series [3] (setting [5]) is 1.83 (14.4)** 1/hr. Further, in series [3] (setting [6]), the “FMGX AUC(0-23)” value is recorded as 18162 (22.3) hr×ng/mL, the “FMGX AUC(0-t)” value is reported as 18162 (22.3) hr×ng/mL, the “FMGX AUC(inf)” value is recorded as 18163 (22.3) hr×ng/mL and the “FMGX CL” value is listed as 110117 (22.3) mL/hr. In series [3] (setting [6]), the “FMGX Cmax” value is listed as 2974 (24.2) ng/mL, the “FMGX Vz” value is listed as 69.4 (30.4) L, the “FMGX t½” value was 0.44 (18.4) hr and the “FMGX λz” value is listed as 1.59 (18.4) 1/hr. Further, the “FMGX Tmax” value in series [3] (setting [6]) is 9.50 (0.50 – 12.1) hr. The “Effect of CYP3A4 inhibition or pan-CYP induction on exposure to FMGX” value in series [3] (both cohorts) is reported as “did not affect exposure”.
Turning to `CCC(C)n1ncn(-c2ccc(N3CCN(c4ccc(OCC5COC(Cn6cncn6)(c6ccc(Cl)cc6Cl)O5)cc4)CC3)cc2)c1=O` (stereo not shown) [ITR, itraconazole, reference compound], in series [1] (setting [7]), the “Increase in alanine transaminase (ALT)” value was ~ 8 × ULN and the “Increase in aspartate transaminase (AST)” value was ~ 11 × ULN. Also, the “Increase in lactate dehydrogenase (LDH)” value in series [1] (one participant, cohort 1, day 31 to day 63) is ~ 2 × ULN.

These data come from PMC11620482, “Phase 1 drug-drug interaction study to assess the effect of CYP3A4 inhibition and pan-CYP induction on the pharmacokinetics and safety of fosmanogepix in healthy participants” (Antimicrobial Agents and Chemotherapy, 2024).
